For one series, the system named is wild-type HIV-1 NL4-3. Description: HIV-1 replication in U87MG cells (p24 ELISA). The format is cell-based. The following applies: for REPLICATION @ 3 μM % Inhibition vs. DMSO control: U87MG cells; for inhibition at 3 µM: Human immunodeficiency virus 1, NL43, U-87 MG, 96 h, read-out: REPLICATION @ 3 μM % Inhibition vs. DMSO control. The text has this: In particular disclosed embodiments, the compound may be used to block Nef-dependent HIV replication and infectivity. FIG. 7 illustrates the chemical structures of the compounds identified by the Nef:Hck HTS campaign and subsequently shown to block Nef-dependent enhancement of HIV-1 replication in two different cell lines are shown, along with the IC50 values for each compound against Hck alone vs. the Nef:Hck complex. FIG. 8 illustrates results concerning HIV replication. […] Viral output for the DMSO-treated control cultures was consistently greater than 100-fold over the HIV input, typically ranging from 9,000-12,000 p24 equivalents/ml. Virus replication was assessed by p24 ELISA after 4 days (U87MG) or 9 days (CEM-T4). Data are expressed as the mean percent inhibition as compared to control cultures incubated with the carrier solvent (DMSO)±S.E.M. (n=4). Results of replication and cytotoxicity experiments with all certain hit compounds from the primary screen are shown in FIG. 3 and FIG. 4. FIG. 9 concerns infectivity assays. Compounds (3 μM) were added to cultures of the reporter cell line TZM-b1 followed by infection with either wild-type or Nef-defective (ΔNef) HIV NL4-3 in 96-well plates. After 48 hours, relative virus infectivity was assessed as luciferase production in infected cells. Results are plotted as the mean percent of HIV-1 infectivity observed in control cells incubated with the carrier solvent DMSO±S.E.M. (n=3). In the absence of Nef, infectivity is reduced by about 50% (ΔNef; dashed line shown for reference).
(§1) HIV assays: Viral stocks were prepared by transfection of 293T cells (ATCC) with wild-type and Nef-defective (ΔNef) proviral genomes (NL4—3 strain) and amplified in the T-cell line, MT2 (NIH AIDS Research and Reference Reagent Program). Viral replication was assessed in the U87MG astroglioma cell line engineered to express the HIV-1 co-receptors CD4 and CXCR4 or in the T-lymphoblast cell line, CEM-T4. Both the U87 MG and CEM-T4 cell lines support HIV-1 replication in a Nef-dependent manner, and were obtained from the NM AIDS Research and Reference Reagent Program. Compounds were solubilized in DMSO, and added to the cell culture medium 1 h prior to infection with HIV. Viral replication was monitored for either 4 days (U87MG) or 9 days (CEM-T4) by measuring p24 Gag protein levels in the culture supernatant using standard ELISA-based techniques. HIV-1 infectivity was measured using the reporter cell line, TZM-b1 (NM AIDS Research and Reference Reagent Program). Cells were grown in 96-well plates (2.5×10^4) 8 h prior to virus infection to permit adherence. Compounds were pre-incubated with wild-type HIV-1 for 4 h prior to addition to the cells in a final volume of 200 μl. After 48 h at 37° C., the cells were washed with PBS and lysed in luciferase lysis buffer (Promega) by rocking for 15 min Lysates (40 μl) were transferred to white 96-well plates and 50 μl luciferase reagent (Promega) was injected into each well. Readings were recorded with a delay time of 2 sec and an integration period of 10 sec.

The subject of a further series is HIV-1 NL4-3. Description: HIV-1 infectivity in TZM-b1 reporter cells (luciferase). The format is cell-based. The following applies: for inhibition at 3 µM: Human immunodeficiency virus 1, NL43, TZM-b1, 48 h, read-out: INFECTIVITY @ 3 μM % Inhibition vs. DMSO control. The protocol:
Compounds (1 μM) shown in FIG. 7 were added to cultures of U87MG and CEM-T4 cells in 96-well plates, followed by infection with wild-type HIV-1 NL4-3 (50 pg p24 equivalents/ml) 1 hour later. […] Virus replication was assessed by p24 ELISA after 4 days (U87MG) or 9 days (CEM-T4). Data are expressed as the mean percent inhibition as compared to control cultures incubated with the carrier solvent (DMSO)±S.E.M. (n=4). […] FIG. 9 concerns infectivity assays. Compounds (3 μM) were added to cultures of the reporter cell line TZM-b1 followed by infection with either wild-type or Nef-defective (ΔNef) HIV NL4-3 in 96-well plates. After 48 hours, relative virus infectivity was assessed as luciferase production in infected cells. […]
as §1, with “Both the U87 MG and CEM-T4 cell lines support HIV-1 replication in a Nef-dependent manner, and were obtained from the NM AIDS Research and Reference Reagent Program.” left out

The nature of series [1]: Preliminary pharmacokinetics in C3H mice. The following applies: for T1/2: i.v., 2 mg/kg; for % F (oral bioavailability): p.o., 10 mg/kg.
Protocol: Compounds were administered to male C3H mice via the i.v. and p.o. routes, and plasma concentrations were assessed by LC-MS/MS at the time points indicated. Plasma levels were determined for three mice at each time point and are shown as the mean±S.D.
Another series deals with cell-surface MHC-I. Description: Nef-induced MHC-I downregulation in CEM-GFP cells (flow cytometry). The format is cell-based. The following applies: CEM-GFP cells infected with HIV-1 WT NL43, 8 days. The protocol: (§2) CEM-GFP cells were treated for 4 hrs with compounds or DMSO (control), then infected with 100 pg/ml HIV-1 WT NL43 or 500 pg/ml ΔNef-NL43.
Another series deals with cell-surface CD4. The series can be described thus: Nef-induced CD4 downregulation in CEM-GFP cells (flow cytometry). The format is cell-based. The note with it: CEM-GFP cells infected with HIV-1 WT NL43, 8 days. How it is done:
as §2
Percentages on the flow diagrams (FIGS. 33A-33E) show percent of cells positive for CD4.
Background: In flow cytometry, cells or beads pass a laser one at a time.

As to `N=C(N)n1nc(-c2ccoc2)c(CCc2ccc(F)cc2)c1O` [JV-1-96], the “REPLICATION @ 3 μM % Inhibition vs. DMSO control” value in the series with wild-type HIV-1 NL4-3 is given as “Toxic”. The “INFECTIVITY @ 3 μM % Inhibition vs. DMSO control” value in the series on HIV-1 NL4-3 (3 μM, TZM-b1 reporter cells) is 11.0%.

`NC(=S)n1nc(-c2ccc([N+](=O)[O-])cc2)c(CCc2cccc(Cl)c2)c1O` [JZ-1-96-2-1]: in the series on wild-type HIV-1 NL4-3, the “REPLICATION @ 3 μM % Inhibition vs. DMSO control” value is given as “Toxic”. Moreover, in the series on HIV-1 NL4-3, the inhibition at 3 µM is 59.5%. Also, in series [1], the “T1/2” value amounted to 1.53 h and the “% F (oral bioavailability)” value is 85%.

Take `NC(=S)n1nc(-c2ccc([N+](=O)[O-])cc2)c(Cc2cccc(Cl)c2)c1O` [JZ-1-97-2-1]: the inhibition at 3 µM is 51.6% in the series with wild-type HIV-1 NL4-3 and 56.6% in the series on HIV-1 NL4-3. The “Reversal of Nef-mediated MHC-I downregulation” value in the series with cell-surface MHC-I is given as “reverse Nef-mediated MHC-I downregulation to the same extent observed in cells infected with Nef-defective HIV-1”. Moreover, in the series on cell-surface CD4, the “Reversal of Nef-mediated CD4 downregulation” value is recorded as “reverse Nef-mediated CD4 downregulation to the same extent observed in cells infected with Nef-defective HIV-1”. In addition, the “T1/2” value in series [1] was found to be 1.66 h. Moreover, in series [1], the “% F (oral bioavailability)” value is 57%.

Turning to `O=[N+]([O-])c1ccc(-c2n[nH]c(O)c2Cc2cccc(Cl)c2)cc1` [JZ-1-97-2-2], the inhibition at 3 µM in the series with wild-type HIV-1 NL4-3 turned out to be 0%; with HIV-1 NL4-3, 12.7%.

As for `NC(=O)n1nc(-c2ccc(F)cc2)c(/N=N/c2cccnc2)c1O` [JZ-1-101], the inhibition at 3 µM in the series with wild-type HIV-1 NL4-3 and with HIV-1 NL4-3 was 0% in each case.

On to `NC(=O)n1nc(-c2ccc(F)cc2)c(/N=N/c2cncc(Cl)c2)c1O` [JZ-1-106], for which the inhibition at 3 µM in the series with wild-type HIV-1 NL4-3 is 0%; with HIV-1 NL4-3, 3.5%.

Regarding `NC(=S)n1nc(-c2ccc(F)cc2)c(/N=N/c2cncc(Cl)c2)c1O` [JZ-1-107], the inhibition at 3 µM was determined as 0% with wild-type HIV-1 NL4-3 and 19.7% with HIV-1 NL4-3.

For `Oc1[nH]nc(-c2ccc(F)cc2)c1/N=N/c1cccnc1` [JZ-1-110-1], the inhibition at 3 µM in the series with wild-type HIV-1 NL4-3 stood at 0%; in the series on HIV-1 NL4-3, 3.3%.

Take `Oc1[nH]nc(-c2ccc(F)cc2)c1/N=N/c1cncc(Cl)c1` [JZ-1-110-2]: the inhibition at 3 µM was found to be 19.3% in the series on wild-type HIV-1 NL4-3 and 0% in the series with HIV-1 NL4-3.

As for `COc1cccc(CCc2c(-c3ccc([N+](=O)[O-])cc3)nn(C(=N)N)c2O)c1` [JZ-1-135-1], the results for the inhibition at 3 µM in the series with wild-type HIV-1 NL4-3 and in the series with HIV-1 NL4-3 were 54.1% and 9.5%, respectively.

`N=C(N)n1nc(-c2ccccn2)c(CCc2cccc(Cl)c2)c1O` [JZ-1-135-2]: the “REPLICATION @ 3 μM % Inhibition vs. DMSO control” value in the series on wild-type HIV-1 NL4-3 is “Toxic”. For the same compound, the inhibition at 3 µM with HIV-1 NL4-3 amounted to 0%.

For the compound `Oc1c(Cc2ccc(F)cc2)c(-c2ccc(F)cc2)nn1-c1ccccn1` [JZ-1-178], the inhibition at 3 µM with wild-type HIV-1 NL4-3 worked out at 0%; with HIV-1 NL4-3, 34.7%.

As for `NC(=S)n1nc(-c2ccc([N+](=O)[O-])cc2)c(/N=N/c2ccc(Cl)cc2)c1O` [KM-1-46], the values for the inhibition at 3 µM in the series on wild-type HIV-1 NL4-3 and in the series on HIV-1 NL4-3 were 43.6% and 37.2%, respectively.

The term inhibition denotes the percentage by which the read-out fell short of the control.

These data come from patent US9695127B2, “Compounds for treating HIV and methods for using the compounds” (University of Pittsburgh—Of the Commonwealth System of …, priority 2012, dated 2017).
